Literature values, collected in publication PMC4761099 (British Journal of Pharmacology, 2016).

System: Ob/ob mice
Conditions: leptin mutant mice, acute setting; ref Kerr et al., 2011

Question: With “GIP(8-42): literature GIP fragment (Kerr et al., 2011) (SDYSIAMDKIHQQDFVNWLLAQKGKKNDWKHNITQ; Gastric inhibitory polypeptide; UniProt P09681 59-93, looked up, fragment)” as the substance, how does the “antagonism of GIP(1–42) in vivo, in words” value read?
Answer: The value was “decreased insulin secretion and increased plasma glucose”.
